Legend:
NLM-NmMetQ [1] = biological target: T1, NLM-NmMetQ (Neisseria meningitidis, UniProt Q7DD63); assay: […] NMR FAXS competition; format: binding; conditions: 43 uM protein, 43 uM analog, 2 mM trifluoromethyl methionine reporter, T2 120 ms, 300 K; competitive
T1 construct: gene NMB1946; made as in Nguyen et al. 2019; E. coli BL21(DE3) Gold
T1 sequence (Q7DD63 22-287): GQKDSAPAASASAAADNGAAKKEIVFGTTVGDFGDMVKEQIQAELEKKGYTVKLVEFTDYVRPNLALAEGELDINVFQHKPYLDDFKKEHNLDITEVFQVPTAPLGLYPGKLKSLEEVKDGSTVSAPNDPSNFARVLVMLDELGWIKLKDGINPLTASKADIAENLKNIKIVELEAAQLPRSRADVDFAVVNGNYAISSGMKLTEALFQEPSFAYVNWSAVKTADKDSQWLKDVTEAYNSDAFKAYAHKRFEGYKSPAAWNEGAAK

NLM-NmMetQ [2] = biological target: T1, NLM-NmMetQ; assay: […] NMR CPMG relaxation, direct reporter binding; conditions: 43 uM protein, 2 mM reporter, T2 120 ms, 300 K
[3] = biological target: T2, lipo-NmMetQ:NmMetNI (methionine site) (Neisseria meningitidis, UniProt Q7DD63); assay: EnzChek phosphate ATPase stimulation; format: biochemical; conditions: 2 mM ATP, NmMetNI:lipo-NmMetQ:analog 1:8:50 molar ratio, 5 mM MgCl2, pH 7.5, 37 C, 0.05% DDM
T2 construct: gene NMB1946; full-length MetQ, signal cleaved, triacylated at Cys20, C-terminal His10; MetNI with His10 on MetN; DDM-solubilized; E. coli; Methionine ABC transporter permease protein MetI
T2 sequence (Q7DD63 20-287): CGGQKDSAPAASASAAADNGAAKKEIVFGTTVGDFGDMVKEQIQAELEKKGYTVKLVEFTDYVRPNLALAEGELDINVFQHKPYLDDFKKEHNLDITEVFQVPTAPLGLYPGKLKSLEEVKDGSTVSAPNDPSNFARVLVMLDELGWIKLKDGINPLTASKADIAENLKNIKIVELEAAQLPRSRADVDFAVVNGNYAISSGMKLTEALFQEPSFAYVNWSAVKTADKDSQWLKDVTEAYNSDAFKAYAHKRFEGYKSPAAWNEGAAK
T2 sequence (Q9JXP2 1-245 partner): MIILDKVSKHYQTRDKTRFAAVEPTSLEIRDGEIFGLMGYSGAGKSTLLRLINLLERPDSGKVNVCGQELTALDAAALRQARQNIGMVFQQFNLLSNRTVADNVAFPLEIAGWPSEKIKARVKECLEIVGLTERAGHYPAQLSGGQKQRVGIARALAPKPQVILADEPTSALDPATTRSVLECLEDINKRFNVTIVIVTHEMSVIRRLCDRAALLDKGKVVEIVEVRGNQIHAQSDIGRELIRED
T2 sequence (Q9JXP3 1-228 partner): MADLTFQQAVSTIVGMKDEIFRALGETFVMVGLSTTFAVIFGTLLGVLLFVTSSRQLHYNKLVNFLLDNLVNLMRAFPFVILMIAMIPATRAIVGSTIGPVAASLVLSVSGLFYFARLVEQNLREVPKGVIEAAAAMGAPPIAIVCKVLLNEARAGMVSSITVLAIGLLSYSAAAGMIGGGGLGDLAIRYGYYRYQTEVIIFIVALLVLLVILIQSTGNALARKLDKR

Structure (SMILES)	-ln(CPMG/1D) (NLM-NmMetQ [1])	-ln(CPMG/1D) (NLM-NmMetQ [2])	EnzChek phosphate ATPase stimulation [3]
CCCC[C@H](N)C(=O)O [L-norleucine]	seleno-L-methionine, L-methionine sulfoximine, and L-norleucine were well tolerated	–	–
C[Se]CC[C@H](N)C(=O)O [seleno-L-methionine]	seleno-L-methionine, L-methionine sulfoximine, and L-norleucine were well tolerated	–	–
CSCC[C@@H](N)C(=O)O [D-methionine]	D-methionine displaced less reporter than L-methionine	–	–
CSCC[C@H](N)C(=O)O [L-methionine]	L-methionine completely displaced the reporter molecule	–	–
CSCC[C@H](NC(C)=O)C(=O)O [N-acetyl-L-methionine]	Addition of these analogs led to the respective complete or near complete displacement	–	–
N[C@@H](CCSC(F)(F)F)C(=O)O [Trifluoromethyl-methionine]	–	reporter molecule plus NLM-NmMetQ has a high -ln(CPMG/1D) ratio	–
CS(=N)(=O)CC[C@H](N)C(=O)O (stereo partly drawn) [L-methionine sulfoximine]	seleno-L-methionine, L-methionine sulfoximine, and L-norleucine were well tolerated	–	–
CSCC[C@H](NC=O)C(=O)O [N-formyl-L-methionine]	Addition of these analogs led to the respective complete or near complete displacement	–	methionine analogs led to substrate-stimulated ATPase activity: N-acetyl-L-methionine, N-formyl-L-methionine
CCOC(=O)[C@@H](N)CCSC [L-methionine ethyl ester]	L-methionine ethyl ester only partially displaced the reporter molecule	–	–
CCSCC[C@H](N)C(=O)O [L-ethionine]	addition of a methylene group (L-ethionine) was better tolerated	–	–

From publication PMC8416018, “Characterization of the ABC methionine transporter from Neisseria meningitidis reveals that lipidated MetQ is required for interaction” (eLife, 2021)
